The structures appear in SMILES notation. Starred links: 1 amine or outer side, 2 acyl side, 3 side chain; linkers in the order of their positions; H or OH if unused. Non-standard residues stand in square brackets, D forms with d. Residues, ends and D or L forms follow the SMILES beside them. X39 = CNc1ncc(-c2ccc(C[C@H]3CCN([*:1])[C@H]3C(=O)[*:2])cc2)cn1; dPro(4R-(4-pyridylmethyl)) = O=C(O)[C@H]1C[C@@H](Cc2ccncc2)CN1; X49 = Nc1cnc(-c2ccc(C[C@H]3CCN([*:1])[C@H]3C(=O)[*:2])cc2)cn1; dPro(3S-(4-Br-benzyl)) = O=C(O)[C@@H]1NCC[C@@H]1Cc1ccc(Br)cc1; Trp(βS-Me,4-F) = C[C@@H](c1c[nH]c2cccc(F)c12)[C@H](N)C(=O)O; X33 = O=C([C@H]1[C@@H](Cc2ccc(-c3ccncc3)cc2)CCN1[*:1])[*:2]; X42 = O=C([C@H]1[C@@H](Cc2ccc(-c3cncnc3)cc2)CCN1[*:1])[*:2]; X48 = O=C([C@H]1[C@@H](Cc2ccc(-c3cccnc3)cc2)CCN1[*:1])[*:2]; Bip(4'-COOH) = N[C@@H](Cc1ccc(-c2ccc(C(=O)O)cc2)cc1)C(=O)O; Ala(1-bicyclo(1.1.1)pentyl) = N[C@@H](CC12CC(C1)C2)C(=O)O; dPro(4R-Bzl(4-F)) = O=C(O)[C@H]1C[C@@H](Cc2ccc(F)cc2)CN1; Ala(pyrimidin-5-yl) = N[C@@H](Cc1cncnc1)C(=O)O; Phe(4-COOH) = N[C@@H](Cc1ccc(C(=O)O)cc1)C(=O)O; Pro(cis-4-F) = O=C(O)[C@@H]1C[C@H](F)CN1; AEF = NCCOc1ccc(C[C@H](N)C(=O)O)cc1; 4Pal = N[C@@H](Cc1ccncc1)C(=O)O; Cit = NC(=O)NCCC[C@H](N)C(=O)O; Dab = NCC[C@H](N)C(=O)O; Dap = NC[C@H](N)C(=O)O; Aib = CC(C)(N)C(=O)O

The target in the assay is T1, IL-1β (Homo sapiens, UniProt P01584).
T1 construct: purchased BioLegend 579404
T1 sequence (P01584 117-269): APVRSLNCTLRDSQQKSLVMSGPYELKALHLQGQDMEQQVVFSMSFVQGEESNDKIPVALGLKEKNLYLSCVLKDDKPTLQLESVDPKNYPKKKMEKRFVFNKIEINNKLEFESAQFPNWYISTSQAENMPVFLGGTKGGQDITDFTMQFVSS
In words: IL-6 assay in MRC5 cells: inhibition of IL-1β induced IL-6 secretion (AlphaLISA). The format is cell-based. As to conditions: inhibition of IL-1β induced IL-6 secretion in MRC5 cells; read-out: MRC5 IC50. A digest of the protocol:
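Compound was pre-incubated 1 h at ambient temperature with recombinant human IL-1β at 2λ EC80 before adding human lung fibroblast MRC5 cells (3000/well) in EMEM with 0.025% BSA. After overnight culture at 37 °C, 5% CO2, secreted IL-6 in conditioned medium was measured by AlphaLISA; IC50 from 4-parameter logistic fits.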
Regarding `C[C@@H](c1c[nH]c2cccc(F)c12)[C@@H]1NC(=O)[C@@H]2C[C@H](F)CN2C(=O)CNC(=O)[C@H](Cc2ccc(C(=O)O)cc2)NC(=O)[C@H](CC23CC(C2)C3)NC(=O)[C@H](Cc2ccc(-c3ccc(C(=O)O)cc3)cc2)NC(=O)[C@H]2C[C@@H](Cc3ccncc3)CN2C(=O)CNC(=O)[C@H](CN)NC(=O)[C@H](CCC(N)=O)NC(=O)[C@H](Cc2cncnc2)NC(=O)C(C)(C)NC(=O)[C@H](Cc2c[nH]c3ccccc23)NC(=O)[C@H](CCC(=O)O)NC(=O)C(C)(C)NC1=O` [Example 46] (cyclo([Bip(4'-COOH)][Ala(1-bicyclo(1.1.1)pentyl)][Phe(4-COOH)]G[Pro(cis-4-F)][Trp(βS-Me,4-F)][Aib]EW[Aib][Ala(pyrimidin-5-yl)]Q[Dap]G[dPro(4R-(4-pyridylmethyl))])), the half-inhibitory concentration (IC50) was 34 pM. Turning to `C[C@@H](c1c[nH]c2cccc(F)c12)[C@@H]1NC(=O)[C@@H]2C[C@H](F)CN2C(=O)CNC(=O)[C@H](Cc2ccc(C(=O)O)cc2)NC(=O)[C@H](Cc2ccncc2)NC(=O)[C@H](Cc2ccc(-c3ccc(C(=O)O)cc3)cc2)NC(=O)[C@H]2C[C@@H](Cc3ccncc3)CN2C(=O)CNC(=O)[C@H](CN)NC(=O)[C@H](CCC(N)=O)NC(=O)[C@H](Cc2ccncc2)NC(=O)C(C)(C)NC(=O)[C@H](Cc2c[nH]c3ccccc23)NC(=O)[C@H](CCC(=O)O)NC(=O)C(C)(C)NC1=O` [Example 47] (cyclo([Bip(4'-COOH)][4Pal][Phe(4-COOH)]G[Pro(cis-4-F)][Trp(βS-Me,4-F)][Aib]EW[Aib][4Pal]Q[Dap]G[dPro(4R-(4-pyridylmethyl))])), the IC50 was determined as 29 pM. As to `C[C@@H](c1c[nH]c2cccc(F)c12)[C@@H]1NC(=O)[C@@H]2C[C@H](F)CN2C(=O)CNC(=O)[C@H](Cc2ccc(C(=O)O)cc2)NC(=O)[C@H](CC23CC(C2)C3)NC(=O)[C@H](Cc2ccc(-c3ccc(C(=O)O)cc3)cc2)NC(=O)[C@H]2C[C@@H](Cc3ccncc3)CN2C(=O)CNC(=O)[C@H](CN)NC(=O)[C@H](CCC(N)=O)NC(=O)[C@H](Cc2ccncc2)NC(=O)C(C)(C)NC(=O)[C@H](Cc2c[nH]c3ccccc23)NC(=O)[C@H](CCC(=O)O)NC(=O)C(C)(C)NC1=O` [Example 48] (cyclo([4Pal]Q[Dap]G[dPro(4R-(4-pyridylmethyl))][Bip(4'-COOH)][Ala(1-bicyclo(1.1.1)pentyl)][Phe(4-COOH)]G[Pro(cis-4-F)][Trp(βS-Me,4-F)][Aib]EW[Aib])), the half-maximal inhibitory concentration (IC50) is 27 pM. With `CC(=O)NCCOc1ccc(C[C@@H]2NC(=O)[C@H]3C[C@@H](Cc4ccncc4)CN3C(=O)CNC(=O)[C@H](CCN)NC(=O)[C@H](CCC(N)=O)NC(=O)[C@H](Cc3cncnc3)NC(=O)C(C)(C)NC(=O)[C@H](Cc3c[nH]c4ccccc34)NC(=O)[C@H](CCC(=O)O)NC(=O)C(C)(C)NC(=O)[C@H]([C@@H](C)c3c[nH]c4cccc(F)c34)NC(=O)[C@@H]3C[C@H](F)CN3C(=O)CNC(=O)[C@H](Cc3ccc(C(=O)O)cc3)NC(=O)[C@H](Cc3ccncc3)NC2=O)cc1` [Example 49] (cyclo([AEF](Ac)[4Pal][Phe(4-COOH)]G[Pro(cis-4-F)][Trp(βS-Me,4-F)][Aib]EW[Aib][Ala(pyrimidin-5-yl)]Q[Dab]G[dPro(4R-(4-pyridylmethyl))])), the IC50 came out at 47 pM. Turning to `CC(=O)NCCOc1ccc(C[C@@H]2NC(=O)[C@H]3C[C@@H](Cc4ccncc4)CN3C(=O)CNC(=O)[C@H](CCN)NC(=O)[C@H](CCC(N)=O)NC(=O)[C@H](Cc3cncnc3)NC(=O)C(C)(C)NC(=O)[C@H](Cc3c[nH]c4ccccc34)NC(=O)[C@H](CCC(=O)O)NC(=O)C(C)(C)NC(=O)[C@H]([C@@H](C)c3c[nH]c4cccc(F)c34)NC(=O)[C@@H]3C[C@H](F)CN3C(=O)CNC(=O)[C@H](Cc3ccc(C(=O)O)cc3)NC(=O)[C@H](CC34CC(C3)C4)NC2=O)cc1` [Example 50] (cyclo([AEF](Ac)[Ala(1-bicyclo(1.1.1)pentyl)][Phe(4-COOH)]G[Pro(cis-4-F)][Trp(βS-Me,4-F)][Aib]EW[Aib][Ala(pyrimidin-5-yl)]Q[Dab]G[dPro(4R-(4-pyridylmethyl))])), the IC50 worked out at 44 pM. The value for `C[C@@H](c1c[nH]c2cccc(F)c12)[C@@H]1NC(=O)[C@@H]2C[C@H](F)CN2C(=O)CNC(=O)[C@H](Cc2ccc(C(=O)O)cc2)NC(=O)[C@H](Cc2ccncc2)NC(=O)[C@H](Cc2ccc(-c3ccc(C(=O)O)cc3)cc2)NC(=O)[C@H]2[C@@H](Cc3ccc(Br)cc3)CCN2C(=O)CNC(=O)[C@H](CCN)NC(=O)[C@H](CCC(N)=O)NC(=O)[C@H](Cc2cncnc2)NC(=O)C(C)(C)NC(=O)[C@H](Cc2c[nH]c3ccccc23)NC(=O)[C@H](CCC(=O)O)NC(=O)C(C)(C)NC1=O` [Example 51] (cyclo([4Pal][Phe(4-COOH)]G[Pro(cis-4-F)][Trp(βS-Me,4-F)][Aib]EW[Aib][Ala(pyrimidin-5-yl)]Q[Dab]G[dPro(3S-(4-Br-benzyl))][Bip(4'-COOH)])) was 14 pM. Turning to `C[C@@H](c1c[nH]c2cccc(F)c12)[C@@H]1NC(=O)[C@@H]2C[C@H](F)CN2C(=O)CNC(=O)[C@H](Cc2ccc(C(=O)O)cc2)NC(=O)[C@H](Cc2ccncc2)NC(=O)[C@H](Cc2ccc(-c3ccc(C(=O)O)cc3)cc2)NC(=O)[C@H]2C[C@@H](Cc3ccc(F)cc3)CN2C(=O)CNC(=O)[C@H](CCN)NC(=O)[C@H](CCC(N)=O)NC(=O)[C@H](CCCNC(N)=O)NC(=O)C(C)(C)NC(=O)[C@H](Cc2c[nH]c3ccccc23)NC(=O)[C@H](CCC(=O)O)NC(=O)C(C)(C)NC1=O` [Example 52] (cyclo([Bip(4'-COOH)][4Pal][Phe(4-COOH)]G[Pro(cis-4-F)][Trp(βS-Me,4-F)][Aib]EW[Aib][Cit]Q[Dab]G[dPro(4R-Bzl(4-F))])), the half-maximal inhibitory concentration (IC50) stood at 21 pM. Turning to `C[C@@H](c1c[nH]c2cccc(F)c12)[C@@H]1NC(=O)[C@@H]2C[C@H](F)CN2C(=O)CNC(=O)[C@H](Cc2ccc(C(=O)O)cc2)NC(=O)[C@H](Cc2ccncc2)NC(=O)[C@H](Cc2ccc(-c3ccc(C(=O)O)cc3)cc2)NC(=O)[C@H]2[C@@H](Cc3ccc(-c4cncnc4)cc3)CCN2C(=O)CNC(=O)[C@H](CCN)NC(=O)[C@H](CCC(N)=O)NC(=O)[C@H](Cc2cncnc2)NC(=O)C(C)(C)NC(=O)[C@H](Cc2c[nH]c3ccccc23)NC(=O)[C@H](CCC(=O)O)NC(=O)C(C)(C)NC1=O` [Example 53] (cyclo([Bip(4'-COOH)][4Pal][Phe(4-COOH)]G[Pro(cis-4-F)][Trp(βS-Me,4-F)][Aib]EW[Aib][Ala(pyrimidin-5-yl)]Q[Dab]G[X42])), the concentration for half-maximal inhibition (IC50) was 18 pM. Take `CNc1ncc(-c2ccc(C[C@H]3CCN4C(=O)CNC(=O)[C@H](CCN)NC(=O)[C@H](CCC(N)=O)NC(=O)[C@H](Cc5cncnc5)NC(=O)C(C)(C)NC(=O)[C@H](Cc5c[nH]c6ccccc56)NC(=O)[C@H](CCC(=O)O)NC(=O)C(C)(C)NC(=O)[C@H]([C@@H](C)c5c[nH]c6cccc(F)c56)NC(=O)[C@@H]5C[C@H](F)CN5C(=O)CNC(=O)[C@H](Cc5ccc(C(=O)O)cc5)NC(=O)[C@H](Cc5ccncc5)NC(=O)[C@H](Cc5ccc(-c6ccc(C(=O)O)cc6)cc5)NC(=O)[C@@H]34)cc2)cn1` [Example 54] (cyclo([Bip(4'-COOH)][4Pal][Phe(4-COOH)]G[Pro(cis-4-F)][Trp(βS-Me,4-F)][Aib]EW[Aib][Ala(pyrimidin-5-yl)]Q[Dab]G[X39])): the IC50 stood at 21 pM. Consider `C[C@@H](c1c[nH]c2cccc(F)c12)[C@@H]1NC(=O)[C@@H]2C[C@H](F)CN2C(=O)CNC(=O)[C@H](Cc2ccc(C(=O)O)cc2)NC(=O)[C@H](Cc2ccncc2)NC(=O)[C@H](Cc2ccc(-c3ccc(C(=O)O)cc3)cc2)NC(=O)[C@H]2[C@@H](Cc3ccc(-c4ccncc4)cc3)CCN2C(=O)CNC(=O)[C@H](CCN)NC(=O)[C@H](CCC(N)=O)NC(=O)[C@H](Cc2cncnc2)NC(=O)C(C)(C)NC(=O)[C@H](Cc2c[nH]c3ccccc23)NC(=O)[C@H](CCC(=O)O)NC(=O)C(C)(C)NC1=O` [Example 55] (cyclo([Bip(4'-COOH)][4Pal][Phe(4-COOH)]G[Pro(cis-4-F)][Trp(βS-Me,4-F)][Aib]EW[Aib][Ala(pyrimidin-5-yl)]Q[Dab]G[X33])), for which the concentration for half-maximal inhibition (IC50) was determined as 24 pM. Then `C[C@@H](c1c[nH]c2cccc(F)c12)[C@@H]1NC(=O)[C@@H]2C[C@H](F)CN2C(=O)CNC(=O)[C@H](Cc2ccc(C(=O)O)cc2)NC(=O)[C@H](Cc2ccncc2)NC(=O)[C@H](Cc2ccc(-c3ccc(C(=O)O)cc3)cc2)NC(=O)[C@H]2[C@@H](Cc3ccc(-c4cccnc4)cc3)CCN2C(=O)CNC(=O)[C@H](CCN)NC(=O)[C@H](CCC(N)=O)NC(=O)[C@H](Cc2cncnc2)NC(=O)C(C)(C)NC(=O)[C@H](Cc2c[nH]c3ccccc23)NC(=O)[C@H](CCC(=O)O)NC(=O)C(C)(C)NC1=O` [Example 56] (cyclo([Bip(4'-COOH)][4Pal][Phe(4-COOH)]G[Pro(cis-4-F)][Trp(βS-Me,4-F)][Aib]EW[Aib][Ala(pyrimidin-5-yl)]Q[Dab]G[X48])), with 22 pM; and `C[C@@H](c1c[nH]c2cccc(F)c12)[C@@H]1NC(=O)[C@@H]2C[C@H](F)CN2C(=O)CNC(=O)[C@H](Cc2ccc(C(=O)O)cc2)NC(=O)[C@H](Cc2ccncc2)NC(=O)[C@H](Cc2ccc(-c3ccc(C(=O)O)cc3)cc2)NC(=O)[C@H]2[C@@H](Cc3ccc(-c4cnc(N)cn4)cc3)CCN2C(=O)CNC(=O)[C@H](CCN)NC(=O)[C@H](CCC(N)=O)NC(=O)[C@H](Cc2cncnc2)NC(=O)C(C)(C)NC(=O)[C@H](Cc2c[nH]c3ccccc23)NC(=O)[C@H](CCC(=O)O)NC(=O)C(C)(C)NC1=O` [Example 57] (cyclo([Bip(4'-COOH)][4Pal][Phe(4-COOH)]G[Pro(cis-4-F)][Trp(βS-Me,4-F)][Aib]EW[Aib][Ala(pyrimidin-5-yl)]Q[Dab]G[X49])), with 19 pM.

For the origin of these results see patent publication US20260242419A1, “A CYCLIC PEPTIDE FOR TRAPPING INTERLEUKIN-1 BETA” (Merck Sharp & Dohme LLC, priority 2023, published 2026).
